Measured values taken from patent publication US12721808B2, “Orris root extracts, compositions, and methods for skin applications” (ACCESS BUSINESS GROUP INTERNATIONAL LLC, priority 2021, dated 2026).

Test system: B16-F10 (B16) cells
Experiment: Bioassay Directed Fractionation (BDF) with B16 cell culture pigmentation assay
Format: cell-based
Settings: LC fraction (20 sec) of Orris root extract corresponding to the compound's peak, FIG. 2
Method: Sample extracts were prepared at 50 mg/ml in DMSO and sonicated for 20 min. Samples solutions were then filtered through 0.2 μm Whatman Anotop 25 syringe filter into autosampler vials for assay. The LC-MS system was modified to incorporate a 10:1 splitter that was positioned between the UV detector and MS ion source. The majority of LC effluent was directed to a Waters Fraction Collector II fitted with a 96-deep well plate into which fractions were collected by time at intervals of 20 sec/well for the first 32 minutes of each run (96 wells/run). The LC column was a XBridge Shield RP18, 5 μm, 4.6×250 mm maintained at ambient temperature (22° C.). The solvent program was ramped linearly as follows: 95% A/5% B at time 0, to 100% B at 30 min, hold at 100% B to 32 min, then to 95% A/5% B at 32.1 min and hold 95% A/5% B until 36 min. The flow rate was 0.8 mL/min and an injection volume of […] was used (0.5 mg solids/injection). Effluent from four consecutive LC runs was collected per plate (2 mg solids/plate). Plates were then dried under nitrogen at 40° C. to remove acetonitrile and residual water was removed by freeze drying. Plates were stored at −80° C. until to assayed for pigmentation response.
The results of the BDF are shown in FIG. 2, with LC-UV chromatogram A at 260 nm showing phytochemical peak profile, and time-aligned bar graph B (with each bar representing a fraction from the LC effluent collected for 20 seconds), showing pigmentation responses using B16 cell culture assay.
Primary cells and cell lines were grown in a humidified atmosphere of 5% CO2 at 37° C. […]
B16 cells (6000 cells/well) were pre-cultured in 96-well plates in DMEM medium supplemented with 10% FBS and 1% P/S for 24 hours. […] The absorbance at 405 nm was measured, and MTT (3-(4,5-dimethylthiazol-2-yl)-2,5-diphenyltetrazolium bromide) assay was performed to examine the viability of cells. […]

Row | SMILES | pigmentation response
1 | COc1c2c(cc3occ(-c4ccc(O[C@@H]5O[C@H](CO)[C@@H](O)[C@H](O)[C@H]5O)cc4)c(=O)c13)OCO2 [germanaism B, Germanaism B] | Increased pigmentation
2 | C=C1CC[C@H](C)C(C)(C)[C@@H]1/C=C/C(C)=C/CC[C@@]1(CO)[C@H](CCCO)/C(=C(/C)C=O)CC[C@]1(C)O [iriflorental, Iriflorental] | reduced pigmentation
3 | CC1=CC[C@H](C)C(C)(C)[C@@H]1/C=C/C(C)=C/CC[C@@]1(CO)[C@H](CCCO)/C(=C(/C)C=O)CC[C@]1(C)O [iripallidal, Iripallidal] | reduced pigmentation
